For assay [1], the target named is T1, mevalonate kinase (MevK, LD-MevK) (Leishmania donovani, UniProt A0A3S7X459).
T1 construct: gene LdCL_310011300; recombinant LD-MevK (pET28a, Ni-NTA purified, ~37 kDa)
T1 sequence (A0A3S7X459 1-329): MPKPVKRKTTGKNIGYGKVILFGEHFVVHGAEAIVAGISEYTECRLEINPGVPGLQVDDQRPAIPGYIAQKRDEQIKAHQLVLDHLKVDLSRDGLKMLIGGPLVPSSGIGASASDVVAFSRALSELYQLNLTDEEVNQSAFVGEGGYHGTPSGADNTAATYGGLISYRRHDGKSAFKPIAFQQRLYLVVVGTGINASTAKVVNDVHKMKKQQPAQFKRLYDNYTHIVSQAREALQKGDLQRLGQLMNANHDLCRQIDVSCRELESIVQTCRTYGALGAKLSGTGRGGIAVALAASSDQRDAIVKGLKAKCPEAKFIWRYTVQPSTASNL
As to the kind of experiment: pyruvate kinase-lactate dehydrogenase coupled assay, purified enzyme, […] compound. The format is biochemical.

The target in assay [2] is T1, mevalonate kinase (MevK, LD-MevK). In words: ITC (exothermic binding constant); also CD, and coupled PK-LDH assay with purified enzyme ([…] inhibition at […], competitive). Conditions: read-out: ITC (exothermic binding constant); also CD, and coupled PK-LDH assay with purifi.
For assay [3] the target is unchanged. As to the kind of experiment: ITC (endothermic binding constant); also CD and enzyme kinetics (Km […]).

In the case of `CCCCCCCC(=O)OC` [1m-CAE, methyl octanoate], the inhibition at 100 µM in assay [1] is approximately 65%. With `CCCCC(C)CCC(=O)O` (stereo not shown) [4m-CA, 4-methyl octanoic acid], the inhibition at 100 µM in assay [1] is approximately 65%.

Take `CCCCCCCC(=O)O` [CA, Caprylic acid]: the Kd in assay [2] came out at 101 µM. For the compound `C[C@@](O)(CCO)CC(=O)O` [MEV, 3,5-Dihydroxy-3-methylpentanoic acid], the Kd in assay [3] is 62.9 µM.

As a reminder, the inhibition is how much of the control response was suppressed.
